Assay results reported in PubChem BioAssay AID248 (DTP/NCI, 2004).
Values joined by “and” are separate entries in the source; they are usually repeats but may differ in a detail not shown here. Equal values may be shown once. Toxic doses and inconclusive results are not listed. Cut-off read from the data, not from the text of the source: active = T/C of 150% or more; inactive = T/C below 125%.

Test system: L1210 leukemia ip in BDF1 mice, survival T/C
Experiment: NCI In Vivo Anticancer Drug Screen. Data for tumor model L1210 Leukemia (intraperitoneal) in B6D2F1 (BDF1) mice
Details: endpoint: mean survival time, higher = longer survival
Procedure, shortened: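 Value reflects the ratio of survival in compound-treated mice to survival in vehicle-treated controls, with both groups carrying the same transplanted tumor.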

[1] = dose: 25.0 mg/kg/injection, schedule: Q01DX009 (ip), vehicle: saline with Tween-80
[2] = dose: 50.0 mg/kg/injection, schedule: Q04DX003 (ip), vehicle: saline
[3] = dose: 100.0 mg/kg/injection, schedule: Q04DX003 (ip), vehicle: saline
[4] = dose: 200.0 mg/kg/injection, schedule: Q01DX001 (ip), vehicle: saline
[5] = dose: 200.0 mg/kg/injection, schedule: Q04DX003 (ip), vehicle: saline
[6] = dose: 400.0 mg/kg/injection, schedule: Q04DX003 (ip), vehicle: saline
[7] = dose: 100.0 mg/kg/injection, schedule: Q01DX001 (ip), vehicle: carboxymethylcellulose (CMC)
[8] = dose: 200.0 mg/kg/injection, schedule: Q01DX001 (ip), vehicle: carboxymethylcellulose (CMC)
[9] = dose: 400.0 mg/kg/injection, schedule: Q01DX001 (ip), vehicle: carboxymethylcellulose (CMC)
[10] = dose: 50.0 mg/kg/injection, schedule: Q01DX009 (ip), vehicle: saline with Tween-80
[11] = dose: 100.0 mg/kg/injection, schedule: Q01DX009 (ip), vehicle: saline with Tween-80
[12] = dose: 200.0 mg/kg/injection, schedule: Q01DX009 (ip), vehicle: saline with Tween-80
[13] = dose: 25.0 mg/kg/injection, schedule: Q04DX003 (ip), vehicle: Klucel (hydroxypropylcellulose) (HPC)
[14] = dose: 50.0 mg/kg/injection, schedule: Q04DX003 (ip), vehicle: Klucel (hydroxypropylcellulose) (HPC)
[15] = dose: 100.0 mg/kg/injection, schedule: Q04DX003 (ip), vehicle: Klucel (hydroxypropylcellulose) (HPC)
[16] = dose: 100.0 mg/kg/injection, schedule: Q04DX003 (ip), vehicle: saline with Tween-80
[17] = dose: 200.0 mg/kg/injection, schedule: Q04DX003 (ip), vehicle: saline with Tween-80
[18] = dose: 400.0 mg/kg/injection, schedule: Q04DX003 (ip), vehicle: saline with Tween-80

Measured: T/C

CN1CCC(CN2c3ccccc3Sc3ccccc32)CC1
inactive: dose: 6.25 mg/kg/injection, schedule: Q01DX009 (ip), vehicle: saline with Tween-80 93 % of control | dose: 12.5 mg/kg/injection, schedule: Q01DX009 (ip), vehicle: saline with Tween-80 93 % of control | dose: 15.0 mg/kg/injection, schedule: Q01DX Z (ip), vehicle: methylcellulose (MC) 104 % of control | [1] 93 % of control | dose: 25.0 mg/kg/injection, schedule: Q04DX003 (ip), vehicle: saline 108 % of control | dose: 30.0 mg/kg/injection, schedule: Q01DX Z (ip), vehicle: methylcellulose (MC) 108 % of control | dose: 45.0 mg/kg/injection, schedule: Q01DX Z (ip), vehicle: methylcellulose (MC) 96 % of control | [2] 100 % of control and 109 % of control | dose: 100.0 mg/kg/injection, schedule: Q01DX001 (ip), vehicle: saline 103 % of control | [3] 97 % of control | [4] 102 % of control | [5] 106 % of control and 108 % of control | [6] 97 % of control

COc1ccc(-c2ccc(CCNC(C)=O)cc2)cc1Cl
inactive: [7] 94 % of control | [8] 86 % of control | [9] 89 % of control

Nc1cc(O)c(CCCNC(=O)CBr)c(-c2ccccc2)c1
inactive: dose: 100.0 mg/kg/injection, schedule: Q01DX001 (ip), vehicle: Klucel (hydroxypropylcellulose) (HPC) 92 % of control | dose: 200.0 mg/kg/injection, schedule: Q01DX001 (ip), vehicle: Klucel (hydroxypropylcellulose) (HPC) 105 % of control | dose: 400.0 mg/kg/injection, schedule: Q01DX001 (ip), vehicle: Klucel (hydroxypropylcellulose) (HPC) 102 % of control

O=C1OC(C(O)CO)C(=O)C1=O (stereo not drawn)
inactive: [10] 97 % of control | dose: 100.0 mg/kg/injection, schedule: Q01DX001 (ip), vehicle: water 102 % of control | [11] 97 % of control | dose: 100.0 mg/kg/injection, schedule: Q01DX009 (ip), vehicle: water 105 % of control | dose: 100.0 mg/kg/injection, schedule: Q04DX003 (ip), vehicle: water 104 % of control | dose: 200.0 mg/kg/injection, schedule: Q01DX001 (ip), vehicle: water 107 % of control | [12] 101 % of control | dose: 200.0 mg/kg/injection, schedule: Q01DX009 (ip), vehicle: water 106 % of control | dose: 200.0 mg/kg/injection, schedule: Q04DX003 (ip), vehicle: water 109 % of control | dose: 400.0 mg/kg/injection, schedule: Q01DX001 (ip), vehicle: water 107 % of control | dose: 400.0 mg/kg/injection, schedule: Q01DX009 (ip), vehicle: water 116 % of control | dose: 400.0 mg/kg/injection, schedule: Q04DX003 (ip), vehicle: water 115 % of control | dose: 800.0 mg/kg/injection, schedule: Q01DX001 (ip), vehicle: water 102 % of control | dose: 800.0 mg/kg/injection, schedule: Q01DX009 (ip), vehicle: water 111 % of control | dose: 800.0 mg/kg/injection, schedule: Q04DX003 (ip), vehicle: water 121 % of control

CN(C(=O)c1c(Cl)[nH]c2ccccc12)c1ccccc1
inactive: [13] 96 % of control | [14] 95 % of control | [15] 90 % of control

C[S+](C)CC(=O)c1ccccc1
inactive: [3] 95 % of control | [5] 104 % of control

COc1cc(O)c([N+](=O)[O-])cc1[N+](=O)[O-]
inactive: [7] 96 % of control | [8] 91 % of control | [9] 100 % of control

N#Cc1ccc[n+]([O-])c1
inactive: [16] 100 % of control | [17] 101 % of control | [18] 97 % of control

COc1cc([N+](=O)[O-])c2nc(/C=N/NC(N)=S)ccc2c1[N+](=O)[O-]
inactive: [4] 86 % of control

CC=NC(C[S-])C(=O)O.CC=NC(C[S-])C(=O)O.[Fe+2] (stereo not drawn)
inactive: [11] 92 % of control | [16] 94 % of control | [12] 91 % of control | [17] 93 % of control | dose: 400.0 mg/kg/injection, schedule: Q01DX009 (ip), vehicle: saline with Tween-80 87 % of control | [18] 88 % of control

CC(C)C1=CC2=CCC3C(C)(C#N)CCCC3(C)C2CC1CC#N (stereo not drawn)
inactive: [16] 88 % of control | [18] 92 % of control

COC(=O)c1cc(NC(=O)Nc2ccc(F)c([N+](=O)[O-])c2)cc(C(=O)OC)c1
inactive: dose: 100.0 mg/kg/injection, schedule: Q01DX009 (ip), vehicle: Klucel (hydroxypropylcellulose) (HPC) 95 % of control | dose: 200.0 mg/kg/injection, schedule: Q01DX009 (ip), vehicle: Klucel (hydroxypropylcellulose) (HPC) 93 % of control | dose: 400.0 mg/kg/injection, schedule: Q01DX009 (ip), vehicle: Klucel (hydroxypropylcellulose) (HPC) 96 % of control

CN1CN(c2ccccc2)C2(CCN(CCCCCCC#N)CC2)C1=O
inactive: [13] 102 % of control | [14] 94 % of control | dose: 200.0 mg/kg/injection, schedule: Q04DX003 (ip), vehicle: Klucel (hydroxypropylcellulose) (HPC) 90 % of control | dose: 400.0 mg/kg/injection, schedule: Q04DX003 (ip), vehicle: Klucel (hydroxypropylcellulose) (HPC) 97 % of control

CCC[CH2][Sn]([CH2]CCC)([O]C)[O]C
inactive: dose: 4.0 mg/kg/injection, schedule: Q01DX009 (ip), vehicle: Klucel (hydroxypropylcellulose) (HPC) 98 % of control | dose: 4.0 mg/kg/injection, schedule: Q04DX003 (ip), vehicle: Klucel (hydroxypropylcellulose) (HPC) 96 % of control | dose: 8.0 mg/kg/injection, schedule: Q01DX009 (ip), vehicle: Klucel (hydroxypropylcellulose) (HPC) 98 % of control | dose: 8.0 mg/kg/injection, schedule: Q04DX003 (ip), vehicle: Klucel (hydroxypropylcellulose) (HPC) 101 % of control | dose: 16.0 mg/kg/injection, schedule: Q01DX009 (ip), vehicle: Klucel (hydroxypropylcellulose) (HPC) 104 % of control | dose: 16.0 mg/kg/injection, schedule: Q04DX003 (ip), vehicle: Klucel (hydroxypropylcellulose) (HPC) 99 % of control

CCCCCCCCCCCCCCCC(=O)N(CCCN)C(C)CCCN(CC)CC (stereo not drawn)
inactive: [1] 93 % of control | [10] 86 % of control | [11] 102 % of control | [16] 97 % of control | [17] 103 % of control | [18] 100 % of control

CC1=C2CCCC(=O)C2(C)CCC1=O (stereo not drawn)
inactive: dose: 100.0 mg/kg/injection, schedule: Q04DX002 (ip), vehicle: Klucel (hydroxypropylcellulose) (HPC) 107 % of control | dose: 200.0 mg/kg/injection, schedule: Q04DX002 (ip), vehicle: Klucel (hydroxypropylcellulose) (HPC) 96 % of control

O=C(/C(=C/c1ccccc1)CN1CCOCC1)c1ccccc1
inactive: [15] 96 % of control

COc1ccc2c(=O)cc(-c3ccccc3)[nH]c2c1
inactive: [2] 100 % of control | dose: 100.0 mg/kg/injection, schedule: Q01DX009 (ip), vehicle: other 122 % of control | [3] 106 % of control | dose: 200.0 mg/kg/injection, schedule: Q01DX009 (ip), vehicle: other 123 % of control | [5] 101 % of control | [6] 104 % of control

CCOC(=O)Cc1cc(OC)c(OC)c(OC)c1
inactive: dose: 100.0 mg/kg/injection, schedule: Q04DX003 (ip), vehicle: acetone 98 % of control | dose: 200.0 mg/kg/injection, schedule: Q04DX003 (ip), vehicle: acetone 94 % of control

O=C(Nc1cccc2ccccc12)c1ccc([N+](=O)[O-])s1
inactive: dose: 50.0 mg/kg/injection, schedule: Q01DX005 (ip), vehicle: water 87 % of control | dose: 100.0 mg/kg/injection, schedule: Q01DX005 (ip), vehicle: water 89 % of control | dose: 200.0 mg/kg/injection, schedule: Q01DX005 (ip), vehicle: water 87 % of control | dose: 400.0 mg/kg/injection, schedule: Q01DX005 (ip), vehicle: water 91 % of control

O=C(N/N=C/c1cc(Cl)ccc1[N+](=O)[O-])c1cccc2ccccc12
inactive: [4] 101 % of control | dose: 400.0 mg/kg/injection, schedule: Q01DX001 (ip), vehicle: saline 97 % of control

CCC1=C/C(=C/c2ccc([N+](=O)[O-])cc2)C(=O)S1
inactive: dose: 100.0 mg/kg/injection, schedule: Q01DX001 (ip), vehicle: saline with Tween-80 87 % of control | dose: 200.0 mg/kg/injection, schedule: Q01DX001 (ip), vehicle: saline with Tween-80 87 % of control | dose: 400.0 mg/kg/injection, schedule: Q01DX001 (ip), vehicle: saline with Tween-80 87 % of control
